Results as given in US9169254B2, “Spiroimidazolone derivative” (Chugai Seiyaku Kabushiki Kaisha, priority 2009, dated 2015).

What follows are compounds tested against T1, human PTH1 receptor (Homo sapiens, UniProt Q03431) (assay: In vitro cAMP signal activity in HKRK-B7 cells (LLC-PK1 cells overexpressing the human PTH1 receptor)). Conditions: HKRK-B7 cells; compound at 1×10^−3 M; cAMP produced as percentage of that produced by hPTH(1-34) at 100 nM.
T1 sequence (Q03431 27-593): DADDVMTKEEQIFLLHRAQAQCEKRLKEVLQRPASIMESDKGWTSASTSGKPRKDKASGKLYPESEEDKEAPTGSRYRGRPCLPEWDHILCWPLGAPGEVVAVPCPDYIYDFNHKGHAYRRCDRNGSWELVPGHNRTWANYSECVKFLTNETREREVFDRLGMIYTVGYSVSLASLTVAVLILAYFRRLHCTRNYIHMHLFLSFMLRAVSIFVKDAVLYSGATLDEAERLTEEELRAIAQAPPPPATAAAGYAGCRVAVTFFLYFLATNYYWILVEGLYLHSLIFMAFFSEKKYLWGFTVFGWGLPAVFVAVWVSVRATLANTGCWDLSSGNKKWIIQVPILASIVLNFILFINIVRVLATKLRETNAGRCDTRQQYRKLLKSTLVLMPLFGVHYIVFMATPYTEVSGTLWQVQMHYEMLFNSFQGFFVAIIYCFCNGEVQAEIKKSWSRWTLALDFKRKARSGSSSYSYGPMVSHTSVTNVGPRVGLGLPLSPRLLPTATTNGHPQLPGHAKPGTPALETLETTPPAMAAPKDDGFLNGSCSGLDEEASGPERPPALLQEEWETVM
Format: cell-based

Q: For `Cc1cc(N(C)C(N)=O)cc(C)c1/C=C/S(=O)(=O)N1CCC2(CC1)N=C(CCCCCCCCCF)NC2=O` [Compound 1325, 1-(4-{(E)-2-[2-(9-Fluoro-nonyl)-4-oxo-1,3,8-triaza-spiro[4.5]dec-1-ene-8-sulfonyl]-vinyl}-3,5-dimethyl-phenyl)-1-methyl-urea], which “cAMP production activity (%)” value is on record?
A: Its value is 113%.

Q: Which “cAMP production activity (%)” value does the source give for `Cc1cc(N2C(=O)CNC2=O)ccc1/C=C/S(=O)(=O)N1CCC2(CC1)N=C(C1CCC(C(C)C)CC1)NC2=O` (centres unmarked) [Compound 563, 3-(4-{(E)-2-[2-(4-Isopropyl-cyclohexyl)-4-oxo-1,3,8-triaza-spiro[4.5]dec-1-ene-8-sulfonyl]-vinyl}-3-methyl-phenyl)-imidazolidine-2,4-dione] here?
A: Its value is 69%.

Q: With `CC(=O)Nc1ccc(CCS(=O)(=O)N2CCC3(CC2)N=C(C2CCC(C)CC2)NC3=O)c(OC(C)C)c1` (centres unmarked) [Compound 812, N-(3-isopropoxy-4-{2-[2-(4-methyl-cyclohexyl)-4-oxo-1,3,8-triaza-spiro[4.5]dec-1-ene-8-sulfonyl]-ethyl}-phenyl)-acetamide] as the compound, how does the “cAMP production activity (%)” value read?
A: The value was 105%.

Q: How did the “cAMP production activity (%)” value turn out when `Cc1cc(N(C)C(N)=O)cc(C)c1CCS(=O)(=O)N1CCC2(CC1)N=C(c1ccc(CCCC(F)(F)F)cc1)NC2=O` [Compound 1358, 1-[3,5-dimethyl-4-(2-{4-oxo-2-[4-(4,4,4-trifluoro-butyl)-phenyl]-1,3,8-triaza-spiro[4.5]dec-1-ene-8-sulfonyl}-ethyl)-phenyl]-1-methyl-urea] was run?
A: The value was 153%.

Q: How did the “cAMP production activity (%)” value turn out when `Cc1cc(C(=O)N2CCC(O)(CF)CC2)cc(C)c1/C=C/S(=O)(=O)N1CCC2(CC1)N=C(C1CCC(C)CC1)NC2=O` (centres unmarked) [Compound 1000, 8-{(E)-2-[4-(4-fluoromethyl-4-hydroxy-piperidine-1-carbonyl)-2,6-dimethyl-phenyl]-ethenesulfonyl}-2-(4-methyl-cyclohexyl)-1,3,8-triaza-spiro[4.5]dec-1-en-4-one] was run?
A: The value was 86%.

Q: `CCc1cc(NC(C)=O)ccc1CCS(=O)(=O)N1CCC2(CC1)N=C(C1CCC(C)CC1)NC2=O` (centres unmarked) [Compound 752, N-(3-ethyl-4-{2-[2-(4-methyl-cyclohexyl)-4-oxo-1,3,8-triaza-spiro[4.5]dec-1-ene-8-sulfonyl]-ethyl}-phenyl)-acetamide] was tested. Which “cAMP production activity (%)” value did it give?
A: Its value is 79%.

Q: Which “cAMP production activity (%)” value does the source give for `Cc1cc(C(=O)N(C)N(C)C)cc(C)c1CCS(=O)(=O)N1CCC2(CC1)N=C(C1CCC(CCC(F)(F)F)CC1)NC2=O` (centres unmarked) [Compound 787, 3,5-dimethyl-4-(2-{4-oxo-2-[4-(3,3,3-trifluoro-propyl)-cyclohexyl]-1,3,8-triaza-spiro[4.5]dec-1-ene-8-sulfonyl}-ethyl)-benzoic acid trimethylhydrazide] here?
A: Its value is 81%.

Q: For `Cc1cc(C(=O)N(C)C)ccc1CCS(=O)(=O)N1CCC2(CC1)N=C(N(C)c1ccccc1)NC2=O` [Compound 1397, 3,N,N-trimethyl-4-{2-[2-(methyl-phenyl-amino)-4-oxo-1,3,8-triaza-spiro[4.5]dec-1-ene-8-sulfonyl]-ethyl}-benzamide], which “cAMP production activity (%)” value is on record?
A: Its value is 24%.

Q: For `Cc1ccc(OCCC(O)CO)cc1CCS(=O)(=O)N1CCC2(CC1)N=C(c1cccc(OC(F)(F)F)c1)NC2=O` (centres unmarked) [Compound 267, 8-{2-[5-(3,4-dihydroxy-butoxy)-2-methyl-phenyl]-ethanesulfonyl}-2-(3-trifluoromethoxy-phenyl)-1,3,8-triaza-spiro[4.5]dec-1-en-4-one], which “cAMP production activity (%)” value is on record?
A: The value was 42%.

Q: Which “cAMP production activity (%)” value does the source give for `COC(=O)N(C)c1ccc(/C=C/S(=O)(=O)N2CCC3(CC2)N=C(c2cccc(OC(F)(F)F)c2)NC3=O)c(C)c1` [Compound 467, methyl-(3-methyl-4-{(E)-2-[4-oxo-2-(3-trifluoromethoxy-phenyl)-1,3,8-triaza-spiro[4.5]dec-1-ene-8-sulfonyl]-vinyl}-phenyl)-carbamic acid methyl ester] here?
A: The value was 60%.

Q: `Cc1nc(CC(=O)N2CCCC(C3=NC4(CCN(S(=O)(=O)CCc5cccc6ccccc56)CC4)C(=O)N3)C2)c(C)s1` (centres unmarked) [Compound 433, 2-{1-[2-(2,5-dimethyl-thiazol-4-yl)-acetyl]-piperidin-3-yl}-8-(2-naphthalen-1-yl-ethanesulfonyl)-1,3,8-triaza-spiro[4.5]dec-1-en-4-one] was tested. Which “cAMP production activity (%)” value did it give?
A: The value was 18%.

Q: `CCCCCCCCCCCCCC1=NC2(CCN([S@TB18](=O)(=O)CCc3c(C)cc(N(C)C(N)=O)cc3C)CC2)C(=O)N1` [Compound 1140, 1-{3,5-dimethyl-4-[2-(4-oxo-2-tridecyl-1,3,8-triaza-spiro[4.5]dec-1-ene-8-sulfonyl)-ethyl]-phenyl}-1-methyl-urea] was tested. Which “cAMP production activity (%)” value did it give?
A: The value was 55%.

Q: For `CCCCC1CCC(C2=NC3(CCN(S(=O)(=O)CCc4c(C)cc(N5C(=O)CNC5=O)cc4C)CC3)C(=O)N2)CC1` (centres unmarked) [Compound 677, 3-(4-{2-[2-(4-Butyl-cyclohexyl)-4-oxo-1,3,8-triaza-spiro[4.5]dec-1-ene-8-sulfonyl]-ethyl}-3,5-dimethyl-phenyl)-imidazolidine-2,4-dione], which “cAMP production activity (%)” value is on record?
A: The value was 69%.

Q: With `Cc1cnc(C2=NC3(CCN(S(=O)(=O)CCc4ccc(C(=O)N(C)C)cc4C)CC3)C(=O)N2)cn1` [Compound 120, 3,N,N-trimethyl-4-{2-[2-(5-methyl-pyrazin-2-yl)-4-oxo-1,3,8-triaza-spiro[4.5]dec-1-ene-8-sulfonyl]-ethyl}-benzamide] as the compound, how does the “cAMP production activity (%)” value read?
A: Its value is 3.1%.

Q: Which “cAMP production activity (%)” value does the source give for `Cc1cc(C(=O)N(C)C)ccc1CCS(=O)(=O)N1CCC2(CC1)N=C(C1(C(F)(F)F)CCC1)NC2=O` [Compound 137, 3,N,N-trimethyl-4-{2-[4-oxo-2-(1-trifluoromethyl-cyclobutyl)-1,3,8-triaza-spiro[4.5]dec-1-ene-8-sulfonyl]-ethyl}-benzamide] here?
A: The value was 50%.

Q: `Cc1cc(C(=O)N2CCCO2)cc(C)c1CCS(=O)(=O)N1CCC2(CC1)N=C(C1CCC(C)CC1)NC2=O` (centres unmarked) [Compound 1182, 8-{2-[4-(isoxazolidine-2-carbonyl)-2,6-dimethyl-phenyl]-ethanesulfonyl}-2-(4-methyl-cyclohexyl)-1,3,8-triaza-spiro[4.5]dec-1-en-4-one] was tested. Which “cAMP production activity (%)” value did it give?
A: The value was 109%.

Q: For `Cc1cc2ccc1CCS(=O)(=O)N1CCC3(CC1)N=C(NC3=O)c1cc(cc(C(F)(F)F)c1)OCCCCCOCCN(C)C2=O` [Compound 1421], which “cAMP production activity (%)” value is on record?
A: Its value is 49%.

Q: With `CCC[C@@H]1CCC[C@H](C2=NC3(CCN(S(=O)(=O)CCc4ccc(N5C(=O)CNC5=O)cc4C)CC3)C(=O)N2)C1` [Compound 949, 3-(3-methyl-4-{2-[4-oxo-2-((1S,3R)-3-propyl-cyclohexyl)-1,3,8-triaza-spiro[4.5]dec-1-ene-8-sulfonyl]-ethyl}-phenyl)-imidazolidine-2,4-dione] as the compound, how does the “cAMP production activity (%)” value read?
A: The value was 92%.

Q: Which “cAMP production activity (%)” value does the source give for `Cc1nc(C)c(C2=NC3(CCN(S(=O)(=O)CCc4ccc(C(=O)N(C)C)cc4C)CC3)C(=O)N2)s1` [Compound 102, 4-{2-[2-(2,4-dimethyl-thiazol-5-yl)-4-oxo-1,3,8-triaza-spiro[4.5]dec-1-ene-8-sulfonyl]-ethyl}-3,N,N-trimethyl-benzamide] here?
A: Its value is 23%.

Q: With `CC(=O)N(C)c1cccc(CCS(=O)(=O)N2CCC3(CC2)N=C(c2cccc(OC(F)(F)F)c2)NC3=O)c1C` [Compound 264, N-methyl-N-(2-methyl-3-{2-[4-oxo-2-(3-trifluoromethoxy-phenyl)-1,3,8-triaza-spiro[4.5]dec-1-ene-8-sulfonyl]-ethyl}-phenyl)-acetamide] as the compound, how does the “cAMP production activity (%)” value read?
A: Its value is 69%.

Q: `Cc1cc(N(C)C(N)=O)cc(C)c1/C=C/S(=O)(=O)N1CCC2(CC1)N=C(C1CCC(CCC(F)(F)F)CC1)NC2=O` (centres unmarked) [Compound 723, 1-[3,5-Dimethyl-4-((E)-2-{4-oxo-2-[4-(3,3,3-trifluoro-propyl)-cyclohexyl]-1,3,8-triaza-spiro[4.5]dec-1-ene-8-sulfonyl}-vinyl)-phenyl]-1-methyl-urea] was tested. Which “cAMP production activity (%)” value did it give?
A: The value was 95%.

Q: For `Cc1cc(N(C)C(N)=O)cc(C)c1CCS(=O)(=O)N1CCC2(CC1)N=C(C1CCC(C)C1)NC2=O` (centres unmarked) [Compound 1055, 1-(3,5-dimethyl-4-{2-[2-(3-methyl-cyclopentyl)-4-oxo-1,3,8-triaza-spiro[4.5]dec-1-ene-8-sulfonyl]-ethyl}-phenyl)-1-methyl-urea], which “cAMP production activity (%)” value is on record?
A: Its value is 84%.

Q: Which “cAMP production activity (%)” value does the source give for `O=C1NC(c2cccc(C(F)(F)F)c2)=NC12CCN(S(=O)(=O)c1ccc(Br)s1)CC2` [Compound 69, 8-(5-bromo-thiophene-2-sulfonyl)-2-(3-trifluoromethyl-phenyl)-1,3,8-triaza-spiro[4.5]dec-1-en-4-one] here?
A: Its value is 61%.

Q: `COC(=O)N1CCCC(C2=NC3(CCN(S(=O)(=O)c4cccc(Cl)c4)CC3)C(=O)N2)C1` (centres unmarked) [Compound 463, 3-[8-(3-chloro-benzenesulfonyl)-4-oxo-1,3,8-triaza-spiro[4.5]dec-1-en-2-yl]-piperidine-1-carboxylic acid methyl ester] was tested. Which “cAMP production activity (%)” value did it give?
A: Its value is 28%.

Q: With `Cc1c(CCS(=O)(=O)N2CCC3(CC2)N=C(c2cccc(OC(F)(F)F)c2)NC3=O)cccc1C(=O)N1CCOCC1` [Compound 411, 8-{2-[2-methyl-3-(morpholine-4-carbonyl)-phenyl]-ethanesulfonyl}-2-(3-trifluoromethoxy-phenyl)-1,3,8-triaza-spiro[4.5]dec-1-en-4-one] as the compound, how does the “cAMP production activity (%)” value read?
A: Its value is 54%.

Q: `CC(=O)Nc1ccc(CCS(=O)(=O)N2CCC3(CC2)N=C(C2CCC(COCC(F)(F)F)CC2)NC3=O)c(C)c1` (centres unmarked) [Compound 919, N-[3-methyl-4-(2-{4-oxo-2-[4-(2,2,2-trifluoro-ethoxymethyl)-cyclohexyl]-1,3,8-triaza-spiro[4.5]dec-1-ene-8-sulfonyl}-ethyl)-phenyl]-acetamide] was tested. Which “cAMP production activity (%)” value did it give?
A: Its value is 68%.
